Laboratory results reported in PubChem BioAssay AID2060618 (Molecular Pharmacology Branch, DTP, NCI, 2025).

Test system: 454973-116-R2-J3-PDC spheroids, percent test/control viability
Assay: Anticancer human tumor 454973-116-R2-J3-PDC patient-derived pancreatic carcinoma cell line growth inhibition [CLK]
Conditions: spheroids with HUVEC and MSC; for IC50: curve of first compound; for viability, T/C: stronger effect = lower value
Procedure, shortened: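 Multi-cell-type spheroids combined patient-derived tumor cells with HUVEC endothelial cells and human mesenchymal stem cells. Paired agents were dosed in half-log steps down from about clinical Cmax, or from 10 microM where Cmax was unknown.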

[1] = second compound 0.0316 µM, first compound 0.0316 µM
[2] = second compound 0.0316 µM, first compound 0.1 µM
[3] = second compound 0.0316 µM, first compound 0.316 µM
[4] = second compound 0.0316 µM, first compound 1 µM
[5] = second compound 0.1 µM, first compound 0.0316 µM
[6] = second compound 0.1 µM, first compound 0.1 µM
[7] = second compound 0.1 µM, first compound 0.316 µM
[8] = second compound 0.1 µM, first compound 1 µM
[9] = second compound 0.316 µM, first compound 0.0316 µM
[10] = second compound 0.316 µM, first compound 0.1 µM
[11] = second compound 0.316 µM, first compound 0.316 µM
[12] = second compound 0.316 µM, first compound 1 µM
[13] = second compound 1 µM, first compound 0.0316 µM
[14] = second compound 1 µM, first compound 0.1 µM
[15] = second compound 1 µM, first compound 0.316 µM
[16] = second compound 1 µM, first compound 1 µM
[17] = second compound 3.16 µM, first compound 0.0316 µM
[18] = second compound 3.16 µM, first compound 0.1 µM
[19] = second compound 3.16 µM, first compound 0.316 µM
[20] = second compound 3.16 µM, first compound 1 µM
[21] = second compound 10 µM, first compound 0.0316 µM
[22] = second compound 10 µM, first compound 0.1 µM
[23] = second compound 10 µM, first compound 0.316 µM
[24] = second compound 10 µM, first compound 1 µM
[25] = second compound 0.0316 µM, first compound 0.00316 µM
[26] = second compound 0.0316 µM, first compound 0.01 µM
[27] = second compound 0.1 µM, first compound 0.00316 µM
[28] = second compound 0.1 µM, first compound 0.01 µM
[29] = second compound 0.316 µM, first compound 0.00316 µM
[30] = second compound 0.316 µM, first compound 0.01 µM
[31] = second compound 1 µM, first compound 0.00316 µM
[32] = second compound 1 µM, first compound 0.01 µM
[33] = second compound 3.16 µM, first compound 0.00316 µM
[34] = second compound 3.16 µM, first compound 0.01 µM
[35] = second compound 10 µM, first compound 0.00316 µM
[36] = second compound 10 µM, first compound 0.01 µM
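Note: spheroids exposed to compounds for 7 days before readout.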

CC(Nc1ccc2c(c1)OCCn1cc(N3C(=O)OCC3C(F)F)nc1-2)C(N)=O (stereo unspecified) + CN1CCN(c2cc(C(=O)Nc3cc4cc(-c5cnn(C)c5)ccc4cn3)ccn2)CC1 was tested, and the IC50 (second compound 0.0316 µM) was > 10000 nM, the IC50 (second compound 0.1 µM) was 332 nM and the IC50 (second compound 0.316 µM) was < 31.6 nM. For the same compound, the IC50 (second compound 1 µM) was < 31.6 nM, the IC50 (second compound 3.16 µM) was < 31.6 nM and the IC50 (second compound 10 µM) was < 31.6 nM. The viability, T/C [1] was 91.9%, the viability, T/C [2] was 82.3% and the viability, T/C [3] was 81.4%. The viability, T/C [4] was 68.3%, the viability, T/C (second compound 0.0316 µM, first compound 3.16 µM) was 64.8% and the viability, T/C (second compound 0.0316 µM, first compound 10 µM) was 53.1%. For the same compound, the viability, T/C [5] was 67.4%, the viability, T/C [6] was 60.2% and the viability, T/C [7] was 49.9%. For the same compound, the viability, T/C [8] was 41.8%, the viability, T/C (second compound 0.1 µM, first compound 3.16 µM) was 34% and the viability, T/C (second compound 0.1 µM, first compound 10 µM) was 30.2%. For the same compound, the viability, T/C [9] was 1.28%, the viability, T/C [10] was 1.34% and the viability, T/C [11] was 0.74%. The viability, T/C [12] was 0.59%, the viability, T/C (second compound 0.316 µM, first compound 3.16 µM) was 1.78% and the viability, T/C (second compound 0.316 µM, first compound 10 µM) was 0.43%. The viability, T/C [13] was 0.08%, the viability, T/C [14] was 0.11% and the viability, T/C [15] was 3.02%. For the same compound, the viability, T/C [16] was 0.1%, the viability, T/C (second compound 1 µM, first compound 3.16 µM) was 0.88% and the viability, T/C (second compound 1 µM, first compound 10 µM) was 0.07%. The viability, T/C [17] was 0.11%, the viability, T/C [18] was 0.14% and the viability, T/C [19] was 0.15%. The viability, T/C [20] was 0.13%, the viability, T/C (second compound 3.16 µM, first compound 3.16 µM) was 0.13% and the viability, T/C (second compound 3.16 µM, first compound 10 µM) was 0.38%. The viability, T/C [21] was 3.01%, the viability, T/C [22] was 0.2% and the viability, T/C [23] was 0.2%. It also gave a viability, T/C [24] of 0.22%, a viability, T/C (second compound 10 µM, first compound 3.16 µM) of 0.21% and a viability, T/C (second compound 10 µM, first compound 10 µM) of 0.23%.
With CCN1CCN(Cc2ccc(Nc3ncc(F)c(-c4cc(F)c5nc(C)n(C(C)C)c5c4)n3)nc2)CC1 + CN1CCN(c2cc(C(=O)Nc3cc4cc(-c5cnn(C)c5)ccc4cn3)ccn2)CC1 the IC50 (second compound 0.0316 µM) was > 1000 nM, the IC50 (second compound 0.1 µM) was > 1000 nM and the IC50 (second compound 0.316 µM) was < 3.16 nM. For the same compound, the IC50 (second compound 1 µM) was < 3.16 nM, the IC50 (second compound 3.16 µM) was < 3.16 nM and the IC50 (second compound 10 µM) was < 3.16 nM. The viability, T/C [25] was 90.9%, the viability, T/C [26] was 93.5% and the viability, T/C [1] was 78.7%. It also gave a viability, T/C [2] of 79.1%, a viability, T/C [3] of 71% and a viability, T/C [4] of 62.2%. For the same compound, the viability, T/C [27] was 77.8%, the viability, T/C [28] was 78.5% and the viability, T/C [5] was 70.6%. It also gave a viability, T/C [6] of 81.2%, a viability, T/C [7] of 63.5% and a viability, T/C [8] of 66.9%. It also gave a viability, T/C [29] of 2.22%, a viability, T/C [30] of 3.67% and a viability, T/C [9] of 6.55%. For the same compound, the viability, T/C [10] was 7.25%, the viability, T/C [11] was 24.6% and the viability, T/C [12] was 13.8%. It also gave a viability, T/C [31] of 0.14%, a viability, T/C [32] of 1.49% and a viability, T/C [13] of 2.77%. For the same compound, the viability, T/C [14] was 0.19%, the viability, T/C [15] was 0.21% and the viability, T/C [16] was 0.24%. The viability, T/C [33] was 0.15%, the viability, T/C [34] was 0.31% and the viability, T/C [17] was 0.58%. It also gave a viability, T/C [18] of 0.16%, a viability, T/C [19] of 0.2% and a viability, T/C [20] of 0.28%. It also gave a viability, T/C [35] of 0.13%, a viability, T/C [36] of 0.22% and a viability, T/C [21] of 0.24%. For the same compound, the viability, T/C [22] was 0.42%, the viability, T/C [23] was 0.21% and the viability, T/C [24] was 3.78%.
With COc1c(OCCCN2CCOCC2)ccc2c3n(c(=NC(=O)c4cnc(N)nc4)nc12)CCN3 + CN1CCN(c2cc(C(=O)Nc3cc4cc(-c5cnn(C)c5)ccc4cn3)ccn2)CC1 the IC50 (second compound 0.0316 µM) was 95.1 nM, the IC50 (second compound 0.1 µM) was 21.7 nM and the IC50 (second compound 0.316 µM) was < 3.16 nM. The IC50 (second compound 1 µM) was < 3.16 nM, the IC50 (second compound 3.16 µM) was < 3.16 nM and the IC50 (second compound 10 µM) was < 3.16 nM. The viability, T/C [25] was 83.4%, the viability, T/C [26] was 84.3% and the viability, T/C [1] was 77.2%. For the same compound, the viability, T/C [2] was 46.6%, the viability, T/C [3] was 21.7% and the viability, T/C [4] was 6.87%. The viability, T/C [27] was 65.2%, the viability, T/C [28] was 63.8% and the viability, T/C [5] was 43.4%. The viability, T/C [6] was 18.1%, the viability, T/C [7] was 9.33% and the viability, T/C [8] was 4.74%. It also gave a viability, T/C [29] of 1.28%, a viability, T/C [30] of 0.96% and a viability, T/C [9] of 1.21%. The viability, T/C [10] was 1.68%, the viability, T/C [11] was 0.41% and the viability, T/C [12] was 0.17%. It also gave a viability, T/C [31] of 0.15%, a viability, T/C [32] of 0.11% and a viability, T/C [13] of 0.55%. It also gave a viability, T/C [14] of 0.06%, a viability, T/C [15] of 1.84% and a viability, T/C [16] of 1.26%. For the same compound, the viability, T/C [33] was 0.21%, the viability, T/C [34] was 0.99% and the viability, T/C [17] was 2.18%. The viability, T/C [18] was 0.08%, the viability, T/C [19] was 1.65% and the viability, T/C [20] was 0.11%. It also gave a viability, T/C [35] of 0.1%, a viability, T/C [36] of 1.86% and a viability, T/C [21] of 0.15%. The viability, T/C [22] was 0.42%, the viability, T/C [23] was 0.43% and the viability, T/C [24] was 0.62%.
